Calls of active or inactive are those of the source.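 The calls were made as follows: active = any inhibition of Kir2.1 potassium channel current, measured at -100 mV, at any tested dose; inactive = no inhibition seen at any dose.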
Target: Inward rectifier potassium channel 2 (Mus musculus) (UniProt P35561)
Assay: mouse Kir2.1 channel blockers, dose response, orthogonal assay for Kir2.1 inhibitor project, cell-based, automated electrophysiology, IonWorks patch clamp (AID 2581)
Conditions: Kir2.1 cell line, IonWorks patch clamp current at -100 mV; for channel activity, lower = inhibition: at 30 µM (top of the series)

Sequence of Inward rectifier potassium channel 2 (Mus musculus) (P35561 whole entry, looked up): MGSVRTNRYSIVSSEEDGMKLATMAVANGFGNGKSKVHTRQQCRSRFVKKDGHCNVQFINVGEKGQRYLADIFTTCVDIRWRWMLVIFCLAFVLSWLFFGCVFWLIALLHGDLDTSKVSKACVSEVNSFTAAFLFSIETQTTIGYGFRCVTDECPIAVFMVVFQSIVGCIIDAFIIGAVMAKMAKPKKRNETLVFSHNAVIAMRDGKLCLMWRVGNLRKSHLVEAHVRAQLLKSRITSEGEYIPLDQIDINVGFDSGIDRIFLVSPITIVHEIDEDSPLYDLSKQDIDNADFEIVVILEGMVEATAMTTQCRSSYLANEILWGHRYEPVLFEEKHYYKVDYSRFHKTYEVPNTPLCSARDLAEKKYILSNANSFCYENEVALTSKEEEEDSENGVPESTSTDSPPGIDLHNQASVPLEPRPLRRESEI

Structure (SMILES)	channel activity, lower = inhibition	IC50
Clc1cccc(CNCc2cccc3ccccc23)c1	inactive	
COc1ccc(CNCc2cccnc2)cc1	inactive	
COc1ccc(CNCc2ccc3ccccc3c2)cc1		9.76 µM
COc1ccc(CNC2CCCc3ccccc32)cc1 (centres undefined)		9.05 µM
COc1ccc(CNCc2ccc(Cl)cc2)cc1		11.5 µM
Fc1cccc(CNCc2cccc3ccccc23)c1F	inactive	
COc1ccc(CNCc2ccc(OC)cc2)cc1		13.3 µM
COc1ccc(CNCc2ccc(OC(F)(F)F)cc2)cc1		24.1 µM
COc1ccc(CNCc2cccc(Cl)c2)cc1		8.99 µM
FC(F)(F)Oc1ccc(CNCc2cccc3ccccc23)cc1	inactive	
COc1ccc(CNCc2ccc(C(C)(C)C)cc2)cc1		14 µM
COc1ccc(CNCc2ccncc2)cc1	inactive	
COc1ccc(CNC(=O)c2cccc3ccccc23)cc1	inactive	
COc1ccc(CNCc2ccc(OC)c(Cl)c2)cc1		5.11 µM
Clc1ccc(CNCc2cccc3ccccc23)cc1	inactive	
COc1ccc(CNCc2ccc(C)cc2)cc1		8.01 µM
COc1ccc(CNC(C)c2cccc3ccccc23)cc1 (centres undefined)	inactive	
COc1ccc(CNCc2ccccn2)cc1	inactive	
COc1ccc(CNCc2ccccc2C)cc1		16.8 µM
CC(C)(C)c1ccc(CNCc2cccc3ccccc23)cc1	inactive	
COc1ccc(CNCc2ccccc2)cc1	inactive	

Continued, values first:

channel activity, lower = inhibition	IC50	Structure (SMILES)
	18.1 µM	COc1ccccc1CNCc1cccc2ccccc12
	23.5 µM	COc1ccc(CNCc2ccc(OC)c3ccccc23)cc1OC
inactive		COc1ccc(C(C)NCc2cccc3ccccc23)cc1 (centres undefined)
	28.2 µM	COc1ccc(CNCc2cccc3ccccc23)c(OC)c1
inactive		COc1cc(CN(C)Cc2cccc3ccccc23)ccc1OCc1ccccc1
	23 µM	COc1ccc(CNCc2cccc3ccccc23)cc1OC
inactive		COc1ccc(COCc2cccc3ccccc23)cc1
inactive		COc1cc(CN(C)Cc2cccc3ccccc23)c([N+](=O)[O-])cc1OC
inactive		Clc1ccc(CNCc2cccc3ccccc23)c(Cl)c1
	23.6 µM	COc1cccc(CNCc2cccc3ccccc23)c1
inactive		COc1cc(Br)c(CN(C)Cc2cccc3ccccc23)cc1OC
	20.6 µM	COc1ccc(CNCc2ccc(OC)c3ccccc23)cc1
inactive		COc1ccc(C(=O)NCc2cccc3ccccc23)cc1

— PubChem BioAssay AID2581 (Johns Hopkins Ion Channel Center, 2010)
